Measurements as given in ChEMBL document CHEMBL4229519, “Design, synthesis, and activity evaluation of novel erythropoietin mimetic peptides” (Bioorg Med Chem Lett, 2018).
Bridge positions count the residues as written; N and C are the ends. Square brackets hold non-standard residues; d marks the D form. Peptide text beside a SMILES is read from it. 1Nal = N[C@@H](Cc1cccc2ccccc12)C(=O)O; Cit = NC(=O)NCCC[C@H](N)C(=O)O; NMeA = CN[C@@H](C)C(=O)O; Sar = CNCC(=O)O

Assays:
Mus musculus [1] = assay: Toxicity in mouse assessed as increase in body weight at 2.1 umol/kg, sc administered once daily for 7 consecutive days measured on day 3 during compound dosing relative to control; format: organism-based; settings: in vivo
Mus musculus [2] = assay: Toxicity in mouse assessed as increase in body weight at 2.1 umol/kg, sc administered once daily for 7 consecutive days measured on day 5 during compound dosing relative to control; format: organism-based; settings: in vivo
Mus musculus [3] = assay: Toxicity in mouse assessed as increase in body weight at 2.1 umol/kg, sc administered once daily for 7 consecutive days measured on day 7 during compound dosing relative to control; format: organism-based; settings: in vivo
Mus musculus [4] = assay: Toxicity in mouse assessed as body weight at 2.1 umol/kg, sc administered once daily for 7 consecutive days measured on day 1 during compound dosing (reference value: 24.5 +/- 1.1 g); format: organism-based; settings: in vivo
Mus musculus [5] = assay: Antianemic activity in mouse assessed as RBC level at 2.1 umol/kg, sc administered once daily for 7 consecutive days (reference value: 8.74 +/- 0.58 10^12/L); format: functional
Mus musculus [6] = assay: Antianemic activity in mouse assessed as hematocrit by measuring ratio of RBC volume to total blood volume at 2.1 umol/kg, sc administered once daily for 7 consecutive days (reference value: 0.476 +/- 0.024); format: functional
Mus musculus [7] = assay: Antianemic activity in mouse assessed as hemoglobin level at 2.1 umol/kg, sc administered once daily for 7 consecutive days (reference value: 135.1 +/- 9.5 g/L); format: functional
Mus musculus [8] = assay: Antianemic activity in mouse assessed as reticulocyte level at 2.1 umol/kg, sc administered once daily for 7 consecutive days (reference value: 0.46 +/- 0.11 10^12/L); format: functional
Mus musculus [9] = assay: Effect on WBC level in mouse at 2.1 umol/kg, sc administered once daily for 7 consecutive days (reference value: 5.84 +/- 1.43 10^9/L); format: ADME, organism-based; settings: in vivo
Erythropoietin receptor = biological target: T1, Erythropoietin receptor (Homo sapiens, UniProt P19235); assay: Agonist activity at EPO receptor in human TF1 cells assessed as induction of cell proliferation after 48 hrs by MTT assay; format: cell-based
T1 sequence (P19235 whole entry): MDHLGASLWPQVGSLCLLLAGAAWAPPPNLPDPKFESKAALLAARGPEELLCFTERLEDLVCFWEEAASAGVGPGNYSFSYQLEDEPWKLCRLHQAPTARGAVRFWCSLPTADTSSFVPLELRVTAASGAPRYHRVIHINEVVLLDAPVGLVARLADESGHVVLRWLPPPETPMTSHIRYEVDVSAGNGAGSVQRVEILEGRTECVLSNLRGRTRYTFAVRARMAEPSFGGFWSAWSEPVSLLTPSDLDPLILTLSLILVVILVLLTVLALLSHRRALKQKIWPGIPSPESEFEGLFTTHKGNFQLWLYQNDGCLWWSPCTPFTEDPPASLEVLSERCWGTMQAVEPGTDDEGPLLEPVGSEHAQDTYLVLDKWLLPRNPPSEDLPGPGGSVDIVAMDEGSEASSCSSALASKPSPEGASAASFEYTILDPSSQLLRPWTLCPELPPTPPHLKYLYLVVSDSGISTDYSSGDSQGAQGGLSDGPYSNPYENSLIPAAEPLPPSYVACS

Row | Activity (Mus musculus [9]) [×10⁹ /L] | EC50 (Erythropoietin receptor) | SMILES | Activity (Mus musculus [1]) [%] | Activity (Mus musculus [2]) [%] | Activity (Mus musculus [3]) [%] | Activity (Mus musculus [4]) [g] | Activity (Mus musculus [5]) [×10¹² /L] | Ratio (Mus musculus [6]) | Activity (Mus musculus [7]) [g/L] | Activity (Mus musculus [8]) [×10¹² /L]
1 | 5.45 |  | CC[C@H](C)[C@@H]1NC(=O)[C@@H]2CCCN2C(=O)CNC(=O)[C@H](CCSC)NC(=O)[C@H](Cc2cnc[nH]2)NC(=O)[C@@H](NC(=O)[C@H](C)NC(=O)[C@H](Cc2ccc(O)cc2)NC(=O)[C@H](CC(C)C)NC(=O)CNC(=O)CNC(C)=O)CSSC[C@@H](C(=O)N[C@@H](CCC(N)=O)C(=O)N(C)[C@@H](C)C(=O)N[C@@H](CC(C)C)C(=O)N[C@@H](CCCNC(=N)N)C(=O)N(C)CC(=O)N[C@@H](CCCCN)C(N)=O)NC(=O)[C@H](C(C)C)NC(=O)[C@H](Cc2cccc3ccccc23)NC(=O)[C@H]([C@@H](C)O)NC1=O (Ac-GGLYACHMGPIT[1Nal]VCQ[NMeA]LR[Sar]K-NH2; disulfide 6-15) | 11 | 15.3 | 19.1 | 24.7 | 9.14 | 0.493 | 146.4 | 0.65
2 |  | Not Active | CC[C@H](C)[C@@H]1NC(=O)[C@@H]2CCCN2C(=O)CNC(=O)[C@H](CCSC)NC(=O)[C@H](Cc2cnc[nH]2)NC(=O)[C@@H](NC(=O)[C@@H](C)NC(=O)[C@H](Cc2ccc(O)cc2)NC(=O)[C@H](CC(C)C)NC(=O)CNC(=O)CNC(C)=O)CSSC[C@@H](C(=O)N[C@@H](CCC(N)=O)C(=O)N2CCC[C@H]2C(=O)N[C@@H](CC(C)C)C(=O)N[C@@H](CCCNC(=N)N)C(=O)N(C)CC(=O)N[C@@H](CCCCN)C(N)=O)NC(=O)[C@H](C(C)C)NC(=O)[C@H](Cc2cccc3ccccc23)NC(=O)[C@H]([C@@H](C)O)NC1=O |  |  |  |  |  |  |  | 
3 | 5.64 |  | CC[C@H](C)[C@@H]1NC(=O)[C@H](C)N(C)C(=O)CNC(=O)[C@H](CCSC)NC(=O)[C@H](Cc2cnc[nH]2)NC(=O)[C@@H](NC(=O)[C@H](C)NC(=O)[C@H](Cc2ccc(O)cc2)NC(=O)[C@H](CC(C)C)NC(=O)CNC(=O)CNC(C)=O)CSSC[C@@H](C(=O)N[C@@H](CCC(N)=O)C(=O)N2CCC[C@H]2C(=O)N[C@@H](CC(C)C)C(=O)N[C@@H](CCCNC(=N)N)C(=O)N(C)CC(=O)N[C@@H](CCCCN)C(N)=O)NC(=O)[C@H](C(C)C)NC(=O)[C@H](Cc2cccc3ccccc23)NC(=O)[C@H]([C@@H](C)O)NC1=O (Ac-GGLYACHMG[NMeA]IT[1Nal]VCQPLR[Sar]K-NH2; disulfide 6-15) | 12.7 | 19.5 | 27.2 | 24.7 | 9.15 | 0.498 | 144.4 | 0.66
4 | 6.48 |  | CC[C@H](C)[C@@H]1NC(=O)[C@@H]2CCCN2C(=O)CNC(=O)[C@H](CCSC)NC(=O)[C@H](Cc2cnc[nH]2)NC(=O)[C@@H](NC(=O)[C@H](C)NC(=O)[C@H](Cc2ccc(O)cc2)NC(=O)[C@H](CC(C)C)NC(=O)CNC(=O)CNC(C)=O)CSSC[C@@H](C(=O)N[C@@H](CCC(N)=O)C(=O)N2CCC[C@H]2C(=O)N[C@@H](CC(C)C)C(=O)N[C@@H](CCCNC(N)=O)C(=O)N(C)CC(=O)N[C@@H](CCCCN)C(N)=O)NC(=O)[C@H](C(C)C)NC(=O)[C@H](Cc2cccc3ccccc23)NC(=O)[C@H]([C@@H](C)O)NC1=O (Ac-GGLYACHMGPIT[1Nal]VCQPL[Cit][Sar]K-NH2; disulfide 6-15) | 11.7 | 16.9 | 21.7 | 25.5 | 9.67 | 0.535 | 158.1 | 0.89
5 | 5.11 |  | CC[C@H](C)[C@@H]1NC(=O)[C@@H]2CCCN2C(=O)CNC(=O)[C@H](CCSC)NC(=O)[C@H](Cc2cnc[nH]2)NC(=O)[C@@H](NC(=O)[C@H](C)NC(=O)[C@H](Cc2ccc(O)cc2)NC(=O)[C@H](CC(C)C)NC(=O)CNC(=O)CNC(C)=O)CSSC[C@@H](C(=O)N[C@@H](CCC(N)=O)C(=O)N2CCC[C@H]2C(=O)N[C@@H](CC(C)C)C(=O)N[C@@H](CCCNC(=N)N)C(=O)N(C)CC(=O)N[C@@H](CCCCN)C(N)=O)NC(=O)[C@H](C(C)C)NC(=O)[C@H](Cc2cccc3ccccc23)NC(=O)[C@H]([C@@H](C)O)NC1=O | 12.5 | 16.3 | 22.6 | 24.9 | 9.17 | 0.493 | 149.9 | 0.7
6 |  | Not Active | CC[C@H](C)[C@@H]1NC(=O)[C@@H]2CCCN2C(=O)CNC(=O)[C@H](CCSC)NC(=O)[C@H](Cc2cnc[nH]2)NC(=O)[C@@H](NC(=O)[C@H](C)NC(=O)[C@@H](Cc2ccc(O)cc2)NC(=O)[C@H](CC(C)C)NC(=O)CNC(=O)CNC(C)=O)CSSC[C@@H](C(=O)N[C@@H](CCC(N)=O)C(=O)N2CCC[C@H]2C(=O)N[C@@H](CC(C)C)C(=O)N[C@@H](CCCNC(=N)N)C(=O)N(C)CC(=O)N[C@@H](CCCCN)C(N)=O)NC(=O)[C@H](C(C)C)NC(=O)[C@H](Cc2cccc3ccccc23)NC(=O)[C@H]([C@@H](C)O)NC1=O |  |  |  |  |  |  |  | 
7 |  | Not Active | CC[C@H](C)[C@@H]1NC(=O)[C@@H]2CCCN2C(=O)CNC(=O)[C@@H](CCSC)NC(=O)[C@H](Cc2cnc[nH]2)NC(=O)[C@@H](NC(=O)[C@H](C)NC(=O)[C@H](Cc2ccc(O)cc2)NC(=O)[C@H](CC(C)C)NC(=O)CNC(=O)CNC(C)=O)CSSC[C@@H](C(=O)N[C@@H](CCC(N)=O)C(=O)N2CCC[C@H]2C(=O)N[C@@H](CC(C)C)C(=O)N[C@@H](CCCNC(=N)N)C(=O)N(C)CC(=O)N[C@@H](CCCCN)C(N)=O)NC(=O)[C@H](C(C)C)NC(=O)[C@H](Cc2cccc3ccccc23)NC(=O)[C@H]([C@@H](C)O)NC1=O |  |  |  |  |  |  |  | 
